Experimental data published in patent publication US20260022143A1, “Cyclic Peptide Inhibitors of IL-23” (JANSSEN PHARMACEUTICA NV, priority 2022, published 2026).
pIC50: −log10 of the molar value. Starred links: 1 amine or outer side, 2 acyl side, 3 side chain; linkers in the order of their positions; H or OH if unused. Positions of bridges follow the written chain, without caps; N, C: chain ends. Non-standard residues stand in square brackets, D forms with d. Residues, ends and D or L forms follow the SMILES beside them. *: point of attachment. X62 = C[N+]1(CCCCc2cn(-c3ccc(C[C@H](N[*:1])C(=O)[*:2])cc3)nn2)CCOCC1; X43 = C[N+](C)(C)CCCCCc1cn(-c2ccc(C[C@H](N[*:1])C(=O)[*:2])cc2)nn1; X27 = C[N+](C)(C)CCc1cn(-c2ccc(C[C@H](N[*:1])C(=O)[*:2])cc2)nn1; X16 = C[N+](C)(C)Cc1cn(-c2ccc(C[C@H](N[*:1])C(=O)[*:2])cc2)nn1; Me3N+(CH2)2O(CH2)2O(CH2)2CO = C[N+](C)(C)CCOCCOCCC(=O)*; Phe(4-N3) = [N-]=[N+]=Nc1ccc(C[C@H](N)C(=O)O)cc1; Trp(7-Me) = Cc1cccc2c(C[C@H](N)C(=O)O)c[nH]c12; Hexanoyl(6-NMe3+) = C[N+](C)(C)CCCCCC(=O)*; Lys(Me3) = C[N+](C)(C)CCCC[C@H](N)C(=O)O; 2Nal = N[C@@H](Cc1ccc2ccccc2c1)C(=O)O; 3Pal = N[C@@H](Cc1cccnc1)C(=O)O; Cit = NC(=O)NCCC[C@H](N)C(=O)O; Lys(Me) = CNCCCC[C@H](N)C(=O)O; Pen = CC(C)(S)[C@H](N)C(=O)O; Thp = NC1(C(=O)O)CCOCC1; X3 = C[N+](C)(C)CCCCC*; Aib = CC(C)(N)C(=O)O; Sar = CNCC(=O)O

How the values were obtained:
[1] = biological target: T1, IL-23R (Homo sapiens, UniProt Q5VWK5); experiment: IL23R Reporter Assay; type: cell-based; conditions: HEK293 cells containing IL-23R, IL-12RP1 and STAT-inducible firefly luciferase reporter; 10 ng/mL IL-23 (EC90); 5 h at 37° C.; read-out: IL23R Reporter Assay
T1 construct: host or cells: HEK293
T1 sequence (Q5VWK5 24-629): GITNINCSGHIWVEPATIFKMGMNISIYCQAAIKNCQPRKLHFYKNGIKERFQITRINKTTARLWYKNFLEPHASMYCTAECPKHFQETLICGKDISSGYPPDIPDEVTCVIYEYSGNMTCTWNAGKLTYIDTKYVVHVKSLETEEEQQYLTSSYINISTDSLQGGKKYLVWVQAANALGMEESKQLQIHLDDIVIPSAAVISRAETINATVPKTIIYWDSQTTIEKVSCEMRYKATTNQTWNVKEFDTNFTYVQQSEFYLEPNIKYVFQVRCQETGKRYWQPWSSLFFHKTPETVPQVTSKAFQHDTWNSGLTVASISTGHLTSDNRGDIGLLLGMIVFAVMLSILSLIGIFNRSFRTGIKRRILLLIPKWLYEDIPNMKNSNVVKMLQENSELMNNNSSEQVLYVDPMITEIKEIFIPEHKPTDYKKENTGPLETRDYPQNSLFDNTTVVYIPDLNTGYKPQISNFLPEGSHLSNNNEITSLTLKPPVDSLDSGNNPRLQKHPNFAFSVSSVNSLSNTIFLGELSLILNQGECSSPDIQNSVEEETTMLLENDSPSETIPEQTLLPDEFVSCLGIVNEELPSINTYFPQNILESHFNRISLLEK

[2] = Exposed Polar Surface Area (EPSA); type: physicochemical; conditions: SFC on Chirex 3014 column; sample 1 mM DMSO stock; read-out: EPSA
Outline: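 SFC retention on a Chirex 3014 (S)-valine/(R)-1-(α-naphthyl)ethylamine column, 35 °C, CO2 with MeOH (20 mM ammonium formate) gradient 5–60% at 20%/min, 14 MPa outlet. Retention times converted to EPSA (Å^2) via linear calibration with 8 standards; samples from 1 mM DMSO stock, run in duplicate.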

| Structure (SMILES) | pIC50 [1] | EPSA [2] [A^2] |
| --- | --- | --- |
| CC(=O)N(C)CCCC[C@@H]1NC(=O)[C@H](Cc2c[nH]c3c(C)cccc23)NC(=O)[C@H]([C@@H](C)O)NC(=O)[C@H](CCCC[N+](C)(C)C)NC(=O)[C@@H](NC(=O)CCOCCOCC[N+](C)(C)C)C(C)(C)SSC(C)(C)[C@@H](C(=O)N[C@@H](Cc2ccc(OCCCCC[N+](C)(C)C)cc2)C(=O)N[C@@H](Cc2ccc3ccccc3c2)C(=O)NC2(C(=O)N[C@@H](CCCCN(C)C(C)=O)C(=O)N[C@@H](CC(N)=O)C(=O)N[C@@H](Cc3cccnc3)C(=O)N(C)CC(=O)N(C)C)CCOCC2)NC1=O [compound 328, cPEG3aCO-Pen(3)-K(Me)3-T-7MeW-K(NMeAc)-Pen(3)-TMAPF-2Nal-THP-K(NMeAc)-N-3Pya-Sar-CON(Me)2] ({Me3N+(CH2)2O(CH2)2O(CH2)2CO}-[Pen][Lys(Me3)]T[Trp(7-Me)][Lys(Me)](Ac)[Pen]Y(X3)[2Nal][Thp][Lys(Me)](Ac)N[3Pal][Sar]-NMe2; disulfide 1-6) | 8.92 | 159 |
| CC(=O)N(C)CCCC[C@@H]1NC(=O)[C@H](Cc2c[nH]c3c(C)cccc23)NC(=O)[C@H]([C@@H](C)O)NC(=O)[C@H](CC(=O)N(C)C)NC(=O)[C@@H](NC(=O)CCOCCOCC[N+](C)(C)C)C(C)(C)SSC(C)(C)[C@@H](C(=O)N[C@@H](Cc2ccc(N=[N+]=[N-])cc2)C(=O)N[C@@H](Cc2ccc3ccccc3c2)C(=O)NC2(C(=O)N[C@@H](CCCCN(C)C(C)=O)C(=O)N[C@@H](CC(N)=O)C(=O)N[C@@H](Cc3cccnc3)C(=O)N(C)CC(=O)N(C)C)CCOCC2)NC1=O [compound 331, cPEG3aCO-Pen(3)-N(N(Me)2)-T-7MeW-K(NMeAc)-Pen(3)-F(4N3)-2Nal-THP-K(NMeAc)-N-3Pya-Sar-CON(Me)2] ({Me3N+(CH2)2O(CH2)2O(CH2)2CO}-[Pen]D(NMe2)T[Trp(7-Me)][Lys(Me)](Ac)[Pen][Phe(4-N3)][2Nal][Thp][Lys(Me)](Ac)N[3Pal][Sar]-NMe2; disulfide 1-6) | 8.92 | 153 |
| CC(=O)N(C)CCCC[C@@H]1NC(=O)[C@H](Cc2c[nH]c3c(C)cccc23)NC(=O)[C@H]([C@@H](C)O)NC(=O)[C@H](CC(=O)N(C)C)NC(=O)[C@@H](NC(=O)CCOCCOCC[N+](C)(C)C)C(C)(C)SSC(C)(C)[C@@H](C(=O)N[C@@H](Cc2ccc(-n3cc(C[N+](C)(C)C)nn3)cc2)C(=O)N[C@@H](Cc2ccc3ccccc3c2)C(=O)NC2(C(=O)N[C@@H](CCCCN(C)C(C)=O)C(=O)N[C@@H](CC(N)=O)C(=O)N[C@@H](Cc3cccnc3)C(=O)N(C)CC(=O)N(C)C)CCOCC2)NC1=O [compound 332, cPEG3aCO-Pen(3)-N(N(Me)2)-T-7MeW-K(NMeAc)-Pen(3)-F(4TzlTMA1)-2Nal-THP-K(NMeAc)-N-3Pya-Sar-CON(Me)2] ({Me3N+(CH2)2O(CH2)2O(CH2)2CO}-[Pen]D(NMe2)T[Trp(7-Me)][Lys(Me)](Ac)[Pen][X16][2Nal][Thp][Lys(Me)](Ac)N[3Pal][Sar]-NMe2; disulfide 1-6) | 8.92 | 158 |
| CC(=O)N(C)CCCC[C@@H]1NC(=O)[C@H](Cc2c[nH]c3c(C)cccc23)NC(=O)[C@H]([C@@H](C)O)NC(=O)[C@H](CC(=O)N(C)C)NC(=O)[C@@H](NC(=O)CCOCCOCC[N+](C)(C)C)C(C)(C)SSC(C)(C)[C@@H](C(=O)N[C@@H](Cc2ccc(-n3cc(CC[N+](C)(C)C)nn3)cc2)C(=O)N[C@@H](Cc2ccc3ccccc3c2)C(=O)NC2(C(=O)N[C@@H](CCCCN(C)C(C)=O)C(=O)N[C@@H](CC(N)=O)C(=O)N[C@@H](Cc3cccnc3)C(=O)N(C)CC(=O)N(C)C)CCOCC2)NC1=O [compound 333, cPEG3aCO-Pen(3)-N(N(Me)2)-T-7MeW-K(NMeAc)-Pen(3)-F(4TzlTMA2)-2Nal-THP-K(NMeAc)-N-3Pya-Sar-CON(Me)2] ({Me3N+(CH2)2O(CH2)2O(CH2)2CO}-[Pen]D(NMe2)T[Trp(7-Me)][Lys(Me)](Ac)[Pen][X27][2Nal][Thp][Lys(Me)](Ac)N[3Pal][Sar]-NMe2; disulfide 1-6) | 8.74 | 159 |
| CC(=O)N(C)CCCC[C@@H]1NC(=O)[C@H](Cc2c[nH]c3c(C)cccc23)NC(=O)[C@H]([C@@H](C)O)NC(=O)[C@H](CC(=O)N(C)C)NC(=O)[C@@H](NC(=O)CCOCCOCC[N+](C)(C)C)C(C)(C)SSC(C)(C)[C@@H](C(=O)N[C@@H](Cc2ccc(-n3cc(CCCCC[N+](C)(C)C)nn3)cc2)C(=O)N[C@@H](Cc2ccc3ccccc3c2)C(=O)NC2(C(=O)N[C@@H](CCCCN(C)C(C)=O)C(=O)N[C@@H](CC(N)=O)C(=O)N[C@@H](Cc3cccnc3)C(=O)N(C)CC(=O)N(C)C)CCOCC2)NC1=O [compound 335, cPEG3aCO-Pen(3)-N(N(Me)2)-T-7MeW-K(NMeAc)-Pen(3)-F(4TzlTMA5)-2Nal-THP-K(NMeAc)-N-3Pya-Sar-CON(Me)2] ({Me3N+(CH2)2O(CH2)2O(CH2)2CO}-[Pen]D(NMe2)T[Trp(7-Me)][Lys(Me)](Ac)[Pen][X43][2Nal][Thp][Lys(Me)](Ac)N[3Pal][Sar]-NMe2; disulfide 1-6) | 8.92 | 153 |
| CC(=O)N(C)CCCC[C@@H]1NC(=O)[C@H](Cc2c[nH]c3c(C)cccc23)NC(=O)[C@H]([C@@H](C)O)NC(=O)[C@H](CC(=O)N(C)C)NC(=O)[C@@H](NC(=O)CCOCCOCC[N+](C)(C)C)C(C)(C)SSC(C)(C)[C@@H](C(=O)N[C@@H](Cc2ccc(-n3cc(CCCC[N+]4(C)CCOCC4)nn3)cc2)C(=O)N[C@@H](Cc2ccc3ccccc3c2)C(=O)NC2(C(=O)N[C@@H](CCCCN(C)C(C)=O)C(=O)N[C@@H](CC(N)=O)C(=O)N[C@@H](Cc3cccnc3)C(=O)N(C)CC(=O)N(C)C)CCOCC2)NC1=O [compound 336, cPEG3aCO-Pen(3)-N(N(Me)2)-T-7MeW-K(NMeAc)-Pen(3)-F(4TzlMMo4)-2Nal-THP-K(NMeAc)-N-3Pya-Sar-CON(Me)2] ({Me3N+(CH2)2O(CH2)2O(CH2)2CO}-[Pen]D(NMe2)T[Trp(7-Me)][Lys(Me)](Ac)[Pen][X62][2Nal][Thp][Lys(Me)](Ac)N[3Pal][Sar]-NMe2; disulfide 1-6) | 8.82 | 156 |

Further lines, results first:

| pIC50 [1] | EPSA [2] [A^2] | Structure (SMILES) |
| --- | --- | --- |
| 8.92 | 157 | CC(=O)N(C)CCCC[C@@H]1NC(=O)[C@H](Cc2c[nH]c3c(C)cccc23)NC(=O)[C@H]([C@@H](C)O)NC(=O)[C@H](CC(=O)N(C)C)NC(=O)[C@@H](NC(=O)CCOCCOCC[N+](C)(C)C)C(C)(C)SSC(C)(C)[C@@H](C(=O)N[C@@H](Cc2ccc(OCCCCC[N+](C)(C)C)cc2)C(=O)N[C@@H](Cc2ccc3ccccc3c2)C(=O)NC2(C(=O)N[C@@H](CCCNC(N)=O)C(=O)N[C@@H](CC(N)=O)C(=O)N[C@@H](Cc3cccnc3)C(=O)N(C)CC(=O)N(C)C)CCOCC2)NC1=O [compound 327, cPEG3aCO-Pen(3)-N(N(Me)2)-T-7MeW-K(NMeAc)-Pen(3)-TMAPF-2Nal-THP-Cit-N-3Pya-Sar-CON(Me)2] ({Me3N+(CH2)2O(CH2)2O(CH2)2CO}-[Pen]D(NMe2)T[Trp(7-Me)][Lys(Me)](Ac)[Pen]Y(X3)[2Nal][Thp][Cit]N[3Pal][Sar]-NMe2; disulfide 1-6) |
| 9.01 | 153 | CC(=O)N(C)CCCC[C@@H]1NC(=O)[C@H](Cc2c[nH]c3c(C)cccc23)NC(=O)[C@H]([C@@H](C)O)NC(=O)[C@H](CC(=O)N(C)C)NC(=O)[C@@H](NC(=O)CCOCCOCC[N+](C)(C)C)C(C)(C)SSC(C)(C)[C@@H](C(=O)N[C@@H](Cc2ccc(OCCCCC[N+](C)(C)C)cc2)C(=O)N[C@@H](Cc2ccc3ccccc3c2)C(=O)NC(C)(C)C(=O)N[C@@H](CCCCN(C)C(C)=O)C(=O)N[C@@H](CC(N)=O)C(=O)N[C@@H](Cc2cccnc2)C(=O)N(C)CC(=O)N(C)C)NC1=O [compound 341, cPEG3aCO-Pen(3)-N(N(Me)2)-T-7MeW-K(NMeAc)-Pen(3)-TMAPF-2Nal-Aib-K(NMeAc)-N-3Pya-Sar-CON(Me)2] ({Me3N+(CH2)2O(CH2)2O(CH2)2CO}-[Pen]D(NMe2)T[Trp(7-Me)][Lys(Me)](Ac)[Pen]Y(X3)[2Nal][Aib][Lys(Me)](Ac)N[3Pal][Sar]-NMe2; disulfide 1-6) |
| 8.70 | 156 | CC(=O)N(C)CCCC[C@@H]1NC(=O)[C@H](Cc2c[nH]c3c(C)cccc23)NC(=O)[C@H]([C@@H](C)O)NC(=O)[C@H](CC(=O)N(C)C)NC(=O)[C@@H](NC(=O)CCCCC[N+](C)(C)C)C(C)(C)SSC(C)(C)[C@@H](C(=O)N[C@@H](Cc2ccc(OCCCCC[N+](C)(C)C)cc2)C(=O)N[C@@H](Cc2ccc3ccccc3c2)C(=O)NC2(C(=O)N[C@@H](CCCCN(C)C(C)=O)C(=O)N[C@@H](CC(N)=O)C(=O)N[C@@H](Cc3cccnc3)C(=O)N(C)CC(=O)N(C)C)CCOCC2)NC1=O [compound 343, 5cpaCO-Pen(3)-N(N(Me)2)-T-7MeW-K(NMeAc)-Pen(3)-TMAPF-2Nal-THP-K(NMeAc)-N-3Pya-Sar-CON(Me)2] ({Hexanoyl(6-NMe3+)}-[Pen]D(NMe2)T[Trp(7-Me)][Lys(Me)](Ac)[Pen]Y(X3)[2Nal][Thp][Lys(Me)](Ac)N[3Pal][Sar]-NMe2; disulfide 1-6) |
